Data: patent US20110144014A1, “CYTOKINE RECEPTOR MODULATORS AND USES THEREOF” (CENTRE HOSPITALIER UNIVERSITAIRE SAINTE-JUSTINE, priority 2005, published 2011)
Read-outs that look alike come from different tables or passages of the source. Each block holds one molecule with its values, some of them ahead of it. Where a SMILES comes first, the peptide text is derived from it. Where no end group is shown, it is not given here. [ ]: non-standard residue; d: D form. dOrn = NCCC[C@@H](N)C(=O)O; Orn = NCCC[C@H](N)C(=O)O

Experiments:
IL-1R/IL-1RacP = target: T1, IL-1R/IL-1RacP (Homo sapiens, UniProt P14778+Q9NPH3); experiment: IL-1β-induced proliferation in TF-1 cells; format: cell-based; conditions: for activity relative to 101.113: Table 11
T1 construct: TF-1 cells; endogenous in cells; host or cells: TF-1
T1 sequence (P14778 18-569): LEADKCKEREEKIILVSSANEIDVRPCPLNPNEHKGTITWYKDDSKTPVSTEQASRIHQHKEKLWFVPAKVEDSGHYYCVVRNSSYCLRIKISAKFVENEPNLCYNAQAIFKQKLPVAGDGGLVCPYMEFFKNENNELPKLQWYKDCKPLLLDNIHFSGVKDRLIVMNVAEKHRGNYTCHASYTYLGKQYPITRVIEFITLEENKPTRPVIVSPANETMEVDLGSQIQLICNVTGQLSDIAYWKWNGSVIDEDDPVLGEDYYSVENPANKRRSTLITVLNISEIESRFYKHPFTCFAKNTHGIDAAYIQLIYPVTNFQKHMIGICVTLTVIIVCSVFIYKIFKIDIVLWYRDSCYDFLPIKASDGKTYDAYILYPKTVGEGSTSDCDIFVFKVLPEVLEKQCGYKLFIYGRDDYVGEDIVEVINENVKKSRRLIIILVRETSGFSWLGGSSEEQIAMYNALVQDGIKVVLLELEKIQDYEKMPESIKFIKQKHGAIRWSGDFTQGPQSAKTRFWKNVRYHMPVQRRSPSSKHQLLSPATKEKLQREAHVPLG
T1 sequence (Q9NPH3 21-570): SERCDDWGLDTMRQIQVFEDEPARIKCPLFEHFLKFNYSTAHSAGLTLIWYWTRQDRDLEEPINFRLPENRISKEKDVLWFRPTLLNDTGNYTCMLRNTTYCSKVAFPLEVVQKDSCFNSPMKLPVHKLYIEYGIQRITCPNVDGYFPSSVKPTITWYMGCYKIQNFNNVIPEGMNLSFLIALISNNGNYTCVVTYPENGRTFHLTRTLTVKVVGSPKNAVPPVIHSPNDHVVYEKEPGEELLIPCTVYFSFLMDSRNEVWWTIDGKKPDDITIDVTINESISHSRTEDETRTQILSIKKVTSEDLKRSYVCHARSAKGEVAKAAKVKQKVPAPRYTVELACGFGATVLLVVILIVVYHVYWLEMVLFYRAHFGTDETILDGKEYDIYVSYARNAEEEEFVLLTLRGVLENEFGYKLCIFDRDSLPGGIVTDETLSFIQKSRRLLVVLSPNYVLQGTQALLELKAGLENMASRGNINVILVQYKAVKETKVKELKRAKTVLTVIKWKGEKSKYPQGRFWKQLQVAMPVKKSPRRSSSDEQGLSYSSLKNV

[1] = test system: TNBS-induced colon inflammation; experiment: TNBS rat model of inflammatory bowel disease; format: in vivo
Method: Colon inflammation was induced by intra-rectal/colon administration of the hapten trinitrobenzene sulphonic acid (TNBS) on male Sprague-Dawley rats (175-200 g) (Bouma, Nature Rev, 2003; Morris, Gastroenterology, 1989). Animals were anesthetized with isoflurane and TNBS dissolved in 50% ethanol (vol/vol). 120 mg/ml (TNBS) was administered into the colon (total volume of 0.25 ml per rat) using a polyethylene tube (PE50). The cannula was inserted at 8 cm from the anus and kept in place for at least 15 minutes after TNBS administration in order to prevent expulsion of the solution. Two hours prior to TNBS administration, the API-101 derivative API-101.10 (1.1 mg/kg) or 0.9% saline was administered intravenously via the caudal vein (total volume of 0.3 ml). […] A third group (control) was not injected with TNBS. Six days after administration of TNBS, rats were killed by CO2 inhalation. Day 6 was chosen as an endpoint because by day 7 spontaneous tissue regeneration begins and this can mask the therapeutic effect of the tested peptide or peptide derivative. Colon was removed and examined macroscopically (adhesions, ulcerations, discoloration and bleeding) and histologically (neutrophil infiltration, epithelial injury, crypt distortion and ulcerations) (Anthony et al., Int. J. Exp. Path. 76:215-224, 1995; Padol et al., Eur. J. of Gastroenterol. Hepatol. 12:257-265, 2000; Dieleman et al., […], 1997; Torres et al., Digestive Diseases and Sciences 44:2523-2529, 1999). Two animals per group were studied.
Histological transversal sections were cut at 4-6 cm from the proximal anal region and colored with the hematoxylin/eosin method. The TNBS model of inflammatory bowel disease reproduces the inflammatory characteristics and tissue injuries of Crohn's disease (e.g., in humans). Morphologically, the colon of the animals injected with TNBS presented thickening, edema, and discoloration of the intestinal wall indicating a significant inflammation. […] Histological features consisted of neutrophil infiltration into the epithelial layer and crypts, epithelial lining injury as well as the loss of crypts. […] The organization and integrity of the crypts in the API-101.10-treated colon is conserved even if there is still some inflammation (half the dose of API-101.10 was used as compared to the macroscopic analysis experiment).
Colon inflammation was induced by intra-rectal/colon administration of the hapten trinitrobenzene sulphonic acid (TNBS) as described above. Two hours prior to TNBS administration, peptides, peptidomimetics or 0.9% saline were administered intravenously (iv) via the caudal vein (various concentrations of mg/kg/d) (total volume of 0.3 ml). […] A third group (control) was not injected with TNBS. For intermittent administration, fifteen minutes after TNBS administration, 101.10 (0.25-1 mg/kg), 101.107 (0.2 mg/kg), 101.113 (0.05-1 mg/kg) were administered by intermittent intraperitoneal injection (ip). Also, these IL-1R antagonists were given twice a day (BID); Remicade® (anti-TNFα) (10 mg/kg) and dexamethasone (0.75 mg/kg) were administered intraperitoneally but only once a day (qd). The intrarectal administration (ir) of 101.10, 101.113 (1 and 2.5 mg/kg), and 5-ASA (50 mg/kg) was done one hour after TNBS administration, and twice a day, except for 5-ASA which is once a day. Finally, 101.10 (1-5 mg/kg) was also administered orally by gavage (po), twice a day. Forty-eight hours after administration of TNBS, rats were killed by CO2 inhalation. The colon was removed and assessed macroscopically (adhesions, ulcerations, discoloration and bleeding) and histologically (neutrophil infiltration, epithelial injury, crypt distortion and ulcerations). One to seven animals per group were studied, according to treatments. Myeloperoxidase (MPO) activity was measured on tissue lysates.

IGF-1R = IGF-1R (Homo sapiens, UniProt P08069); experiment: IGF-1 induced proliferation of MCF-7 breast carcinoma cells (3H-thymidine); format: cell-based; design: MCF-7 breast carcinoma cells; endogenous in cells; host or cells: MCF-7; conditions: MCF7; MCF-7 (breast cancer) cells; Table 5; read-out: Emax
Chain of IGF-1R (P08069 31-736 limits assumed): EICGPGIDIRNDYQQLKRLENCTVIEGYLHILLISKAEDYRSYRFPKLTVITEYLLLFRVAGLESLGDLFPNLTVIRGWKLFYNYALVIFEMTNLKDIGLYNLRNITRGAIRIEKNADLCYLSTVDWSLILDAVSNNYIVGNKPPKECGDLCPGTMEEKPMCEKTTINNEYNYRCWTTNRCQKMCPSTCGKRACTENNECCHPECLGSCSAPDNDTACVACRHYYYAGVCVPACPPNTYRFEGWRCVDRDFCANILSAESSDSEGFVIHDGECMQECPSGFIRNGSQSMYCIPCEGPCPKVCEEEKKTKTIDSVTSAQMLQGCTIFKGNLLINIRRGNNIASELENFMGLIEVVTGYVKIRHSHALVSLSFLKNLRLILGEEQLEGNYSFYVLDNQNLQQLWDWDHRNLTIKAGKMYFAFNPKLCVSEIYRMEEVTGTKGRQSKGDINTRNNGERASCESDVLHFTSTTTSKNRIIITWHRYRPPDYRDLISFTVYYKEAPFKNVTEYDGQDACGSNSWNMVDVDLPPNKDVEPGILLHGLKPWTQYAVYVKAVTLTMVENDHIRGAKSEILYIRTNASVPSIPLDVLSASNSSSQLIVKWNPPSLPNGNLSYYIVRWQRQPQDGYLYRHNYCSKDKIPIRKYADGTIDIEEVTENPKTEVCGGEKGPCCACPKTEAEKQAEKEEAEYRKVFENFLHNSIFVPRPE
Chain of IGF-1R (P08069 741-1367 limits assumed): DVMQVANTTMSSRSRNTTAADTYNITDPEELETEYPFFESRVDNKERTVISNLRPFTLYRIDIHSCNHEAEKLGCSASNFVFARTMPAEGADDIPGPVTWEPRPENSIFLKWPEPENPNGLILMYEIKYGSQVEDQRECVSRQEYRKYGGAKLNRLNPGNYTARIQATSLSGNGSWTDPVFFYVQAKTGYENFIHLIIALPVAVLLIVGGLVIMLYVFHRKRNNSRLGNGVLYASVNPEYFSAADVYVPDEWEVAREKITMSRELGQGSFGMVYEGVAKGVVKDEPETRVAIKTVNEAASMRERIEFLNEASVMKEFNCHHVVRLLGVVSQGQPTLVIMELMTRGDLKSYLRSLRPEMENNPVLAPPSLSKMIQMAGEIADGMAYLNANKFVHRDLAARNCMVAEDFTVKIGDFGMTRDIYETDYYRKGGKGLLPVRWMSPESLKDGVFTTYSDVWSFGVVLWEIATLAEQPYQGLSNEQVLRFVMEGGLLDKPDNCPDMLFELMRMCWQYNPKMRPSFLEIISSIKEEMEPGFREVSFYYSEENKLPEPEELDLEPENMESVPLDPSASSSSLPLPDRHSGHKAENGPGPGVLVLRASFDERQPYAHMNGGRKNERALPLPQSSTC
Method: We also tested the effect IGF-1R antagonist peptides on IGF-1 induced proliferation in other cancer cell types (MCF-7 breast carcinoma cells, HepG2 hepatocarcinoma cells, and MDA-MB-231 breast adenocarcinoma cells). Different cancer cells were pre-incubated (45 min.) with different concentrations of peptides prior to stimulation with IGF-1 (50 ng/ml) (37° C.) for 24 hours; fetal calf serum was omitted 24 hours prior to stimulation with IGF-1 to avoid proliferative effects by other mitotic agents. ^3H-thymidine (1 μCi/ml) was then added for 24 hours, after which cells were washed three times with 5% cold TCA and lysed with 0.1N NaOH/0.1% Triton X-100. Radioactivity was measured with a scintillation counter. Experiments were repeated 3 times in duplicates (FIG. 15). […]

[2] = TF-1, Table 11, read-out: Emax (%), IL-1β-induced TF-1 proliferation
[3] = TF-1, IL-1β-induced, Table 10, read-out: Emax (%), proliferation in TF-1 cells (human)
[4] = intermittent injection (ip), 0.75-qd mg/kg/d
[5] = continuous infusion (ip), 8.0 mg/kg/d
[6] = intermittent injection (ip), 10.0-qd mg/kg/d
[7] = intrarectal administration, 50.0-qd mg/kg/d

Molecule: C[C@@H]1C[C@H]2[C@@H]3CCC4=CC(=O)C=C[C@]4(C)[C@@]3(F)[C@@H](O)C[C@]2(C)[C@@]1(O)C(=O)CO [Dexamethasone, dexamethasone, reference compound]
- Histologic evaluation (median score) [1, 4]: 3 (Medium ulcer (5-10 crypts))
- MPO (% of TNBS + Saline) [1, 4]: 60 % of TNBS + Saline
- Macroscopic evaluation (median score) [1, 4]: 0.87 median score

Molecule: Kineret: Amgen drug, a selective blocker of IL-1; commercial analog of IL-1R antagonist (IL-Ra) [reference compound]
- Histologic evaluation (median score) [1, 5]: 2 (Small ulcer (<5 crypts))
- MPO (% of TNBS + Saline) [1, 5]: 63 % of TNBS + Saline

Molecule: RTVLSNL [APG-206.8, RTVLSNL]
- Emax (IGF-1R): 100%

Molecule: CC(C)C[C@@H](NC(=O)[C@@H](CCC(=O)O)NC(=O)[C@H]1CCCN1C(=O)[C@H](NC(=O)[C@@H](Cc1ccc(O)cc1)NC(=O)[C@H](N)CCCN)[C@H](C)O)C(=O)N[C@H](C)C(=O)O [API-101.115, XYTPELA (X = Ornithine)] (H-[dOrn][dY][dT][dP][dE][dL][dA]-OH)
- Emax (IL-1R/IL-1RacP; [3]): 100%

Molecule: Remicade ®: anti-TNFα [reference compound]
- Histologic evaluation (median score) [1, 6]: 2.5 median score
- MPO (% of TNBS + Saline) [1, 6]: 88 ± 41 % of TNBS + Saline
- Macroscopic evaluation (median score) [1, 6]: 0.5 median score

Molecule: CC(C)C[C@@H](NC(=O)[C@@H](CCC(=O)O)NC(=O)[C@H]1CCCN1C(=O)[C@H](NC(=O)[C@@H](Cc1ccc(O)cc1)NC(=O)[C@H](N)CCCNC(=N)N)[C@H](C)O)C(=O)O [API-101.113, RYTPEL]
- Emax (IL-1R/IL-1RacP; [3]): 100%

Molecule: Nc1ccc(O)c(C(=O)O)c1 [Peptide 5-ASA, 5-ASA, reference compound]
- Histologic evaluation (median score) [1, 7]: 3.3 median score
- MPO (% of TNBS + Saline) [1, 7]: 49 % of TNBS + Saline
- Macroscopic evaluation (median score) [1, 7]: 1.5 median score

Continued, values first:

- Emax (IL-1R/IL-1RacP; [2]): 0%
Molecule: CC(C)C[C@H](NC(=O)[C@H](CCC(=O)O)NC(=O)[C@@H]1CCCN1C(=O)[C@@H](NC(=O)[C@H](Cc1ccc(O)cc1)NC(=O)[C@@H](N)CCCN)[C@@H](C)O)C(=O)O [API-101.126, XYTPEL (X = Ornithine)] (H-[Orn]YTPEL-OH)

- Emax (IL-1R/IL-1RacP; [2]): < 10%
Molecule: KYTPEL [API-101.133, KYTPEL]

- Emax (IL-1R/IL-1RacP; [3]): 75%
Molecule: CC(C)C[C@@H](NC(=O)[C@@H](CCC(=O)O)NC(=O)[C@H]1CCCN1C(=O)[C@H](NC(=O)[C@@H](Cc1c[nH]c2ccccc12)NC(=O)[C@H](N)CCCNC(=N)N)[C@H](C)O)C(=O)N[C@H](C)C(=O)O [API-101.116, RWTPELA]

- Emax (IL-1R/IL-1RacP; [2]): 10%
- activity relative to 101.113 (IL-1R/IL-1RacP): little or no activity
Molecule: CC(C)C[C@@H](NC(=O)[C@@H](CCC(=O)O)NC(=O)[C@H]1CCCN1C(=O)[C@H](NC(=O)[C@@H](Cc1ccc(O)cc1)NC(=O)[C@H](N)CCCNC(N)=O)[C@H](C)O)C(=O)O [API-101.134, XYTPEL (X = Citrulline)]

- Emax (IL-1R/IL-1RacP; [2]): 35%
- activity relative to 101.113 (IL-1R/IL-1RacP): relatively decreased
Molecule: CC(C)C[C@@H](NC(=O)[C@@H](CCC(=O)O)NC(=O)[C@H]1CCCN1C(=O)[C@H](NC(=O)[C@@H](Cc1ccccc1)NC(=O)[C@H](N)CCCNC(=N)N)[C@H](C)O)C(=O)O [API-101.132, RFTPEL] (H-[dR][dF][dT][dP][dE][dL]-OH; N-terminus and C-terminus assumed)

- Emax (IL-1R/IL-1RacP; [2]): 63%
Molecule: CC(C)C[C@@H](NC(=O)[C@@H](CCC(=O)O)NC(=O)[C@H]1CCCN1C(=O)[C@H](NC(=O)[C@@H](Cc1ccc(O)cc1)NC(=O)[C@@H](N)CCCNC(=N)N)[C@H](C)O)C(=O)O [API-101.135, *RYTPEL]

- Emax (IL-1R/IL-1RacP; [2]): < 30%
Molecule: RFVPELA [API-101.127, RFVPELA]

- Emax (IL-1R/IL-1RacP; [2]): 100%
- activity relative to 101.113 (IL-1R/IL-1RacP): relatively decreased
Molecule: CC(C)C[C@@H](NC(=O)[C@@H](CCC(=O)O)NC(=O)[C@H]1CCCN1C(=O)[C@H](NC(=O)[C@@H](Cc1c[nH]c2ccccc12)NC(=O)[C@H](N)CCCNC(=N)N)[C@H](C)O)C(=O)O [API-101.128, RWTPEL] (H-[dR][dW][dT][dP][dE][dL]-OH; N-terminus and C-terminus assumed)
